# Results taken from article PMC5786788, “Antimicrobial Octapeptin C4 Analogues Active against Cryptococcus Species” (Antimicrobial Agents and Chemotherapy, 2018).
# Read-outs that look alike come from different tables or passages of the source.
# How the values were obtained:
# [1] = system: C. neoformans var. grubii; assay: microbe, parasite or virus in culture
# Experimental: The MICs of the yeast strains for PMB, PME, and octapeptin C4 and its derivatives were determined in accordance with CLSI M27-A2 guidelines using YNB (Becton Dickinson, USA) medium supplemented with 10 mM ammonium sulfate and 2% glucose, a final inoculum concentration of 1.5 × 10^3 to 2.0 × 10^3 cells/ml, and incubation at 35°C for 72 h ([39]). […] The MICs for PMB, PME, and octapeptin C4 for A. fumigatus were determined in accordance with the CLSI M38-A2 guidelines ([40]) using synthetic RPMI 1640 medium (with glutamine, without bicarbonate and with phenol red; Life Technologies, USA). The final inoculum concentration was 0.4 × 10^4 to 5 × 10^4 cells/ml, with incubation at 35°C for 48 h. […] All assays were completed in triplicate. Fluconazole was used as a positive control where the MIC was determined at both 50% growth (in accordance with CLSI M27-A2 guidelines) and when there was a “no visible growth” reading. […]
# [2] = system: C. neoformans var. neoformans; assay: microbe, parasite or virus in culture; details: Cryptococcus neoformans, 50% fungal growth
# Experimental: The MICs of the yeast strains for PMB, PME, and octapeptin C4 and its derivatives were determined in accordance with CLSI M27-A2 guidelines using YNB (Becton Dickinson, USA) medium supplemented with 10 mM ammonium sulfate and 2% glucose, a final inoculum concentration of 1.5 × 10^3 to 2.0 × 10^3 cells/ml, and incubation at 35°C for 72 h ([39]). […] The MICs for PMB, PME, and octapeptin C4 for A. fumigatus were determined in accordance with the CLSI M38-A2 guidelines ([40]) using synthetic RPMI 1640 medium (with glutamine, without bicarbonate and with phenol red; Life Technologies, USA). The final inoculum concentration was 0.4 × 10^4 to 5 × 10^4 cells/ml, with incubation at 35°C for 48 h. […] All assays were completed in triplicate. Fluconazole was used as a positive control where the MIC was determined at both 50% growth (in accordance with CLSI M27-A2 guidelines) and when there was a “no visible growth” reading.
smiles,measurement,setting,value
"OC(Cn1cncn1)(Cn1cncn1)c1ccc(F)cc1F [Fluconazole, fluconazole]",MIC,"[1]; Cryptococcus neoformans, read-out: MIC-2, strain 486 (USA), 50% fungal growth",12.5 µg/mL
same,MIC,"[1]; Cryptococcus neoformans, read-out: MIC-2, strain 488 (AIDS+, pre-HAART USA), 50% fungal growth",12.5 µg/mL
same,MIC,"[1]; Cryptococcus neoformans, read-out: MIC-2, strain 490 (USA), 50% fungal growth",6.25 µg/mL
same,MIC,"[1]; Cryptococcus neoformans, read-out: MIC-2, strain 496 (USA), 50% fungal growth",6.25 µg/mL
same,MIC,"[1]; Cryptococcus neoformans, read-out: MIC-2, strain 500 (USA), 50% fungal growth",6.5 µg/mL
same,MIC,"[1]; Cryptococcus neoformans, read-out: MIC-2, strain 502 (ARR3+ USA), 50% fungal growth",6.5 µg/mL
same,MIC,"[1]; Cryptococcus neoformans, read-out: MIC-2, strain 505 (India), 50% fungal growth",6.25 µg/mL
same,MIC,"[1]; Cryptococcus neoformans, read-out: MIC-2, strain 507 (India), 50% fungal growth",6.25 µg/mL
same,MIC,"[1]; Cryptococcus neoformans, read-out: MIC-2, strain 510 (VNII India), 50% fungal growth",1.56 µg/mL
same,MIC,"[1]; Cryptococcus neoformans, read-out: MIC-2, strain 512 (India), 50% fungal growth",6.25 µg/mL
same,MIC,"[1]; Cryptococcus neoformans, read-out: MIC-2, strain 516 (India), 50% fungal growth",6.25 µg/mL
same,MIC,"[1]; Cryptococcus neoformans, read-out: MIC-2, strain 518 (VNI India), 50% fungal growth",6.25 µg/mL
same,MIC,"[1]; Cryptococcus neoformans, read-out: MIC-2, strain 522 (India), 50% fungal growth",6.25 µg/mL
same,MIC,"[1]; Cryptococcus neoformans, read-out: MIC-2, strain 525 (India), 50% fungal growth",12.5 µg/mL
same,MIC,"[1]; Cryptococcus neoformans, read-out: MIC-2, strain 1188 (Japan lung), 50% fungal growth",3.13 µg/mL
same,MIC,"[1]; Cryptococcus neoformans, read-out: MIC-2, strain 1194 (Italy), 50% fungal growth",1.56 µg/mL
same,MIC,"[1]; Cryptococcus neoformans, read-out: MIC-2, strain 1196 (Botswana CSF/AIDS), 50% fungal growth",12.5 µg/mL
same,MIC,"[1]; Cryptococcus neoformans, read-out: MIC-2, strain 1197 (Botswana CSF/AIDS), 50% fungal growth",3.13 µg/mL
same,MIC,"[1]; Cryptococcus neoformans, read-out: MIC-2, strain 1199 (Uganda CSF/HIV+ VNII), 50% fungal growth",3.13 µg/mL
same,MIC,"[1]; Cryptococcus neoformans, read-out: MIC-2, strain H99O (lab strain), 50% fungal growth",6.25 µg/mL
same,MIC,"[1]; Cryptococcus neoformans, read-out: MIC-2, strain H99 XL (lab strain), 50% fungal growth",3.13 µg/mL
same,MIC,"[1]; Cryptococcus neoformans, read-out: MIC-2, strain H99 stud (lab strain), 50% fungal growth",3.13 µg/mL
same,MIC,"[1]; Cryptococcus neoformans, strain 486 (USA), no visible growth",25 µg/mL
same,MIC,"[1]; Cryptococcus neoformans, strain 488 (AIDS+, pre-HAART USA), no visible growth",25 µg/mL
same,MIC,"[1]; Cryptococcus neoformans, strain 490 (USA), no visible growth",12.5 µg/mL
same,MIC,"[1]; Cryptococcus neoformans, strain 496 (USA), no visible growth",12.5 µg/mL
same,MIC,"[1]; Cryptococcus neoformans, strain 500 (USA), no visible growth",12.5 µg/mL
same,MIC,"[1]; Cryptococcus neoformans, strain 502 (ARR3+ USA), no visible growth",12.5 µg/mL
same,MIC,"[1]; Cryptococcus neoformans, strain 505 (India), no visible growth",6.25 µg/mL
same,MIC,"[1]; Cryptococcus neoformans, strain 507 (India), no visible growth",12.5 µg/mL
same,MIC,"[1]; Cryptococcus neoformans, strain 510 (VNII India), no visible growth",3.13 µg/mL
same,MIC,"[1]; Cryptococcus neoformans, strain 512 (India), no visible growth",12.5 µg/mL
same,MIC,"[1]; Cryptococcus neoformans, strain 516 (India), no visible growth",12.5 µg/mL
same,MIC,"[1]; Cryptococcus neoformans, strain 518 (VNI India), no visible growth",12.5 µg/mL
same,MIC,"[1]; Cryptococcus neoformans, strain 522 (India), no visible growth",12.5 µg/mL
same,MIC,"[1]; Cryptococcus neoformans, strain 525 (India), no visible growth",25 µg/mL
same,MIC,"[1]; Cryptococcus neoformans, strain 1188 (Japan lung), no visible growth",12.5 µg/mL
same,MIC,"[1]; Cryptococcus neoformans, strain 1194 (Italy), no visible growth",6.25 µg/mL
same,MIC,"[1]; Cryptococcus neoformans, strain 1196 (Botswana CSF/AIDS), no visible growth",25 µg/mL
same,MIC,"[1]; Cryptococcus neoformans, strain 1197 (Botswana CSF/AIDS), no visible growth",12.5 µg/mL
same,MIC,"[1]; Cryptococcus neoformans, strain 1199 (Uganda CSF/HIV+ VNII), no visible growth",12.5 µg/mL
same,MIC,"[1]; Cryptococcus neoformans, strain H99O (lab strain), no visible growth",12.5 µg/mL
same,MIC,"[1]; Cryptococcus neoformans, strain H99 XL (lab strain), no visible growth",6.25 µg/mL
same,MIC,"[1]; Cryptococcus neoformans, strain H99 stud (lab strain), no visible growth",6.25 µg/mL
same,MIC,"[1]; read-out: MIC-2, strain 1189 (USA BAL/HIV), 50% fungal growth",12.5 µg/mL
same,MIC,"[1]; strain 1189 (USA BAL/HIV), no visible growth",25 µg/mL
same,MIC,"[2]; read-out: MIC-2, strain WM 01.127 (USA)",6.25 µg/mL
same,MIC,"[2]; read-out: MIC-2, strain WM 02.141 (Russia)",3.13 µg/mL
same,MIC,"[2]; read-out: MIC-2, strain WM 02.142 (Russia)",6.25 µg/mL
same,MIC,"[2]; read-out: MIC-2, strain WM 02.143 (Russia)",6.25 µg/mL
same,MIC,"[2]; read-out: MIC-2, strain WM 02.37 (Canada)",6.25 µg/mL
same,MIC,"[2]; read-out: MIC-2, strain WM 02.52 (Canada)",3.13 µg/mL
same,MIC,"[2]; read-out: MIC-2, strain WM 04.168 (Chile)",6.25 µg/mL
same,MIC,"[2]; read-out: MIC-2, strain WM 04.171 (Thailand, environmental)",6.25 µg/mL
same,MIC,"[2]; read-out: MIC-2, strain WM 05.467 (Brazil, environmental)",6.25 µg/mL
same,MIC,"[2]; read-out: MIC-2, strain WM 05.515 (Peru)",1.56 µg/mL
same,MIC,"[2]; read-out: MIC-2, strain WM 09.109 (Italy, environmental)",3.13 µg/mL
